Entries after “also recorded” stand apart in the source; their conditions may differ.
Key:
[1] = test system: ILM of bovine retinal explants; assay: ILM perforation by ICG photoporation, cryosections stained for Collagen IV; settings: ICG 1 mg/ml, 0,4 J/cm^2 800 nm 2 ps laser pulses
Text: FIG. 2: Images of cryosections of conventional bovine explants stained for nuclei in the retina by Hoechst staining (indicated in grey - low contrast) and showing the ILM stained by antibodies against Collagen IV (indicated in white). […] The study aimed to perforate the ILM by photoporation. Thereto, a vital dye, in particular Indocyanine Green (ICG), was delivered to the ILM after which the retina was illuminated with a powerful but extremely short pulse of 800 nm laser light. Without being bound to theory, the absorbance of light by the ICG can result in the evaporation of the surrounding water, creating vapour nanobubbles (VNBs) which upon collapse can cause damage to neighbouring tissue such as in particular the ILM. To generate ILM perforation, an ICG solution (1 mg/ml) was applied on the ILM surface of bovine retinal explants followed by laser scanning of the tissue with 2 picosecond pulses.

[2] = test system: retinal surface of bovine retinal explants (Müller cell endfeet, nerve fibers); assay: Retinal surface imaging with Mitotracker Deep Red and Hoechst after ICG photoporation; settings: ICG 0,1 mg/ml, 0,4 J/cm^2 laser
Protocol: FIG. 4: Images of the retinal surface after staining with Mitotracker and Hoechst. […] Scale bar = 25 µm.
Furthermore, a method was tested to look at the retinal surface in more detail, allowing to visualize several types of structures such as nerve fibers, blood vessels, and Müller cells (cell type located right underneath the ILM). To this end, intact retinal explants were stained with a dye mixture of Mitotracker Deep Red and Hoechst, which allows to identify these structures. […] Indeed, in untreated explants, the retinal surface was neatly organized: a mosaic of Müller cell endfeet intertwined with bundles of nerve fibers.

ILM of bovine explants = assay: Retinal entry of 100 nm polystyrene nanoparticles (Fluospheres) after ICG-mediated ILM perforation; settings: ICG 1 mg/ml, 0,4 J/cm^2 laser
Text: FIG. 5: Images of cryosections of bovine explants stained for nuclei in the retina by Hoechst (indicated in grey - low contrast). […] Scale = 25 µm
It was further tested whether ICG-mediated ILM ablation allowed to deliver therapeutics to the retina.

human ILM [3] = assay: ILM ablation by ICG photoporation in human explants, cryosections stained for Collagen IV; settings: 1 mg/ml ICG, 0,4 J/cm2 laser fluence
Protocol: FIG. 6: Images of cryosections of human explants stained for nuclei in the retina by Hoechst staining (indicated in grey - low contrast) and showing the ILM stained by antibodies against Collagen IV (indicated in white); scale = 25 µm. Top row: untreated; bottom row: treatment with 1 mg/ml ICG and 0,4 J/cm^2 laser fluence. Absence of the ILM is indicated by a dashed line.
Therefore, the approach was tested on human samples. Since the thickness of the ILM is also age dependent, we investigated human ILM ablation in younger and older patients. […] As illustrated in the top row, the ILM in untreated explants becomes gradually thicker with increasing age, which is an observation in accordance with literature (FIG. 6, untreated). Treated samples (bottom row) were treated with 1 mg/ml ICG and 0,4 J/cm2 laser fluence. Absence of the ILM is indicated by a dashed line.

human ILM [4] = assay: Inherent affinity of free ICG for the ILM; format: binding; settings: preliminary data

With `CC1(C)C(/C=C/C=C/C=C/C=C2\N(CCCCS(=O)(=O)O)c3ccc4ccccc4c3C2(C)C)=[N+](CCCCS(=O)(=O)[O-])c2ccc3ccccc3c21` [ICG, Indocyanine Green] the “ILM integrity on cryosections” value [1] was “ILM ablation; also recorded: most of the ILM was absent with only small parts remaining”, the “retinal surface organization (Mitotracker and Hoechst staining)” value [2] was “greatly disturbed; also recorded: way more disorganized” and the “retinal entry of 100 nm polystyrene nanoparticles” value (ILM of bovine explants) was “high retinal uptake; also recorded: massive entry of the nanoparticles into the retina”. The “ILM integrity on cryosections” value (human ILM [3]; human explant patient one) was “fragmented ILM”, the “ILM integrity on cryosections” value (human ILM [3]; human explant patient three) was “completely absent” and the “ILM integrity on cryosections” value (human ILM [3]; human explant patient two) was “completely absent”. The “inherent affinity for the human ILM versus the bovine ILM” value (human ILM [4]) was “remarkably higher than for the bovine ILM”.

Reference: patent US20230293348A1, “DYES FOR USE IN A METHOD OF PHOTOPORATION OF THE INNER LIMITING MEMBRANE” (UNIVERSITEIT GENT, priority 2020, published 2023)
